Test results as given in patent US9439909B2, “Compositions and methods for sensitizing a neoplastic cell to radiation” (The Broad Institute, Inc., priority 2013, dated 2016).

Experiments:
NRF2 protein [1] = assay: Immunoblot of NRF2 protein level in LC-1/SQSF cells; type: cell-based, human; conditions: for expression of endogenous mutant NRF2 compared with control shNTC: Doxycycline induction 24 hours
Description: (§1) Anti-NRF2 antibody (ab31163) was from Abcam (Cambridge, Mass.) (17). NVP-BKM120 and TGX-221 was from Selleck (Houston, Tex.). LY 294002 was from Cell Signaling Technology (Beverly, Mass.).
(§2) Construction of the retroviral expression vector of short hairpin RNA (shRNA) was carried out as described (18). The shRNA-targeted sequences were as follows: NRF2-1 shRNA, […] (SEQ ID NO: 1); NRF2-2 shRNA, […] (SEQ ID NO: 2). The control vector contains nontargeting shRNA sequence. The entry vectors were recombined with pLKO-Tet-ON-puro by LR reactions (Invitrogen, Carlsbad, Calif.), in accordance with the manufacturer's instructions. After infection (multiplicity of infection >1), cells were selected and maintained in the presence of 1 μg/ml puromycin.

NRF2 protein [2] = assay: Immunoblot of NRF2 protein level in RERF-LC-AI cells; type: cell-based, human; conditions: for NRF2 protein level / expression of endogenous NRF2 compared with control shNTC: RERF-LC-AI, Doxycycline induction 24 hours
Description: as §1, §2

LC-1/SQSF cells [3] = assay: Clonogenic survival, LC-1/SQSF cells; type: cell-based, human
Description: (§3) Lung SqCC cell lines from the Cancer Cell Line Encyclopedia (CCLE) were authenticated per CCLE protocol (14) and grown in recommended media supplemented with 10% fetal bovine serum (Benchmark, Calif.) and 100 U/mL Penicillin, 100 μg/mL of Streptomycin, and 292 μg/mL L-Glutamine (Corning, N.Y.). All cultures were maintained at 37° C. in a humidified 5% CO2 atmosphere and tested to ensure absence of Mycoplasma. Plates were treated with 0 Gy (no radiation) or with 1-10 Gy of γ-radiation delivered at 0.91 Gy/min with a ^137Cs source using a GammaCell 40 Exactor (Best Theratronics; Ontario, Canada).
(§4) Cells were plated at appropriate dilutions, irradiated, and incubated for 10-14 days for colony formation. For chemical radiosensitization measurements, drug was added 24 hours prior to irradiation. Colonies were fixed in a solution of acetic acid and methanol 1:3 (v/v) and stained with 0.5% (w/v) crystal violet as previously described (15). A colony was defined to consist of 50 cells or greater. Colonies were counted digitally using ImageJ software as described (16). Integration of survival as a function of dose, or area under the curve, was calculated using Prism, GraphPad Software (La Jolla, Calif.).

RERF-LC-AI cells = assay: Clonogenic survival, RERF-LC-AI cells; type: cell-based, human
Description: as §3, §4

LC-1/SQSF cells [4] = test system: LC-1/SQSF cells
Description: (§5) To test this, LC-1/SQSF cells were generated that stably express hNQO1-ARE-luc, containing cis-acting antioxidant response regulatory elements in the 5′-flanking region of NAD(P)H:quinone oxidoreductase (NQO1) (19), a gene induced by NRF2. Luciferase activity was measured in LC-1/SQSF, hNQO1-ARE-luc cells after incubation with LY 294002, NVP-BKM120, or TGX-221. […] Cellular viability was measured after incubation with LY 294002, NVP-BKM120, or TGX-221.

LC-1/SQSF cells [5] = assay: Cellular viability of LC-1/SQSF cells after incubation with PI3K inhibitors; conditions: LC-1/SQSF, 48 hours
Description: as §5

NRF2 activity = assay: hNQO1-ARE-luc luciferase reporter assay in LC-1/SQSF cells; type: cell-based, human; conditions: 24 hours
Description: LC-1/SQSF, hNQO1-ARE-luc cells were produced as follows. hQR41-ARE sequence (19) and firefly luciferase-PEST sequence (Promega, WI) was cloned into plenti6/BLOCK-iT-DEST lentivirus backbone (Invitrogen, NY) at the restriction sites of NcoI and Hind III. The engineered region was sequence verified and matched 100% of the expected sequences. The plasmid was stably infected to the LC-1/SQSF cell line, selected and maintained in 5 μg/ml Blasticidin in the recommended media.

HCC15 cells = assay: Clonogenic survival, HCC15 cells; type: cell-based, human; conditions: HCC15 (KEAP1 mutant), drug 24 hours before radiation
Description: as §3, §4

A549 cells = assay: Clonogenic survival, A549 cells; type: cell-based, human; conditions: A549, drug 24 hours before radiation
Description: as §3, §4

SQ-1 cells = assay: Clonogenic survival, SQ-1 cells; type: cell-based, human; conditions: SQ-1 (NFE2L2 and KEAP1 wild type), drug 24 hours before radiation
Description: as §3, §4

[6] = Cellular viability of LC-1/SQSF cells after incubation with PI3K inhibitors; conditions: human, LC-1/SQSF cells stably expressing hNQO1-ARE-luc
Description: as §5

In the case of “shNRF2-1: lentiviral-inducible NRF2-targeted shRNA, target sequence AGAGCAAGATTTAGATCATTT (SEQ ID NO: 1) (the letters are possibly those of the target site)”, the “expression of endogenous mutant NRF2 compared with control shNTC” value (NRF2 protein [1]) is reported as “significantly reduced”, the “NRF2 protein level / expression of endogenous NRF2 compared with control shNTC” value (NRF2 protein [2]) is reported as “minimal affect” and the “sensitivity to radiation versus control shNTC cells, clonogenic survival” value (LC-1/SQSF cells [3]; LC-1/SQSF, 2, 4, 6 Gy after Doxycycline 24 hours) is reported as “more sensitive to radiation”.
In the case of `CC(C)(C)c1cc(O)ccc1O` [tBHQ, tert-Butylhydroquinone], the “NRF2 stabilization (NRF2 protein level)” value (NRF2 protein [2]; RERF-LC-AI cells, -/+ tBHQ) is reported as “NRF2 stabilization”.
For “shNRF2-2: lentiviral-inducible NRF2-targeted shRNA, target sequence GCTCCTACTGTGATGTGAAAT (SEQ ID NO: 2) (the letters are possibly those of the target site)”, the “expression of endogenous mutant NRF2 compared with control shNTC” value (NRF2 protein [1]) was “significantly reduced”, the “NRF2 protein level / expression of endogenous NRF2 compared with control shNTC” value (NRF2 protein [2]) was “significantly reduced” and the “clonogenic capacity after lentiviral-induction” value (LC-1/SQSF cells [3]; LC-1/SQSF, no radiation) was “significantly diminished clonogenic capacity”. The “radiation sensitivity, clonogenic survival” value (RERF-LC-AI cells; RERF-LC-AI, 2, 4, 6 Gy after Doxycycline 24 hours) was “did not result in any observable decrease” and the clonogenic capacity (RERF-LC-AI cells; RERF-LC-AI, no radiation) was “did not result in any observable decrease”.
For `Cc1cc(C(C)Nc2ccccc2)c2nc(N3CCOCC3)cc(=O)n2c1` (stereo not drawn) [TGX-221], the viability (LC-1/SQSF cells [4]) was greater than 90% and the “decrement in cellular viability” value (LC-1/SQSF cells [5]) was “mirrored the effect on NRF2 activity”.
For `Nc1cc(C(F)(F)F)c(-c2cc(N3CCOCC3)nc(N3CCOCC3)n2)cn1` [NVP-BKM120, 5-(2,6-dimorpholinopyrimidin-4-yl)-4-(trifluoromethyl)pyridin-2-amine], the “decrement in NRF2 activity (luciferase activity)” value (NRF2 activity) was “significant decrement in NRF2 activity”, the “decrement in NRF2 protein level” value (NRF2 protein [1]; 24 hours) was “significant decrement in NRF2 protein level” and the “clonogenic survival with drug and radiation compared to control (0 Gy)” value (“clonogenic survival … compared to control (0 Gy)” below) (LC-1/SQSF cells [3]; LC-1/SQSF (NFE2L2 mutant), drug 24 hours before radiation) was “synergistic decrement in clonogenic survival”. For the same compound, the “clonogenic survival … compared to control (0 Gy)” value (HCC15 cells) was “synergistic decrement in clonogenic survival”, the “clonogenic survival … compared to control (0 Gy)” value (A549 cells) was “synergistic decrement in clonogenic survival” and the “synergy between drug and radiation, clonogenic survival” value (RERF-LC-AI cells; RERF-LC-AI (NFE2L2 and KEAP1 wild type), drug 24 hours before radiation) was “significantly less synergy”. For the same compound, the “synergy between drug and radiation, clonogenic survival” value (SQ-1 cells) was “significantly less synergy”, the viability at 24 h [6] was greater than 90% and the “decrement in cellular viability” value (LC-1/SQSF cells [5]) was “mirrored the effect on NRF2 activity”.
For `O=c1cc(N2CCOCC2)oc2c(-c3ccccc3)cccc12` [LY 294002], the viability at 24 h [6] was greater than 90%.
